# Assay results: a melting point compilation (Tetko et al.; mined from patent text by program, amines drawn as free bases though some values may be those of a salt)
row,SMILES,melting point [°C]
1,c1ccc(CN(c2ccccc2)c2cccc3ccccc23)cc1,120 to 123
2,CCOCCOCCn1ccc2c1CC(c1ccccc1Cl)C1C(=O)NC(=O)C21 (stereo not given),158 to 162
3,Cc1ccc2c(c1)CC(=O)N2c1c(F)cc(F)c(F)c1F,172 to 173
4,CC(C)(C)CC(SC1CCCCC1)c1c(O)cc(-c2ccccc2)oc1=O (stereo not given),> 225
5,CC(C)(C)OC(=O)N[C@@H](Cc1ccccc1)c1nc2c(C(F)(F)F)cccc2c(=O)o1,145
6,"Nc1ccc2c(c1)CC(N)CC2 (single isomer, unassigned; (+))",33 to 34
7,CC(C)OC(=O)Cc1ccc2c(c1)C(=O)c1sccc1CO2,92 to 94
8,O=C(Nc1ccc(-c2ccc(C(=O)O)cc2)cc1)OCC1c2ccccc2-c2ccccc21,245 to 248
9,OCC(CO)(COCc1ccccc1)COCc1ccccc1,73
10,CC(NC(=O)c1cc2ccccc2[nH]1)C(=O)N(c1ccccc1)c1ccccc1 (racemic),242
11,N#Cc1ccc(COc2cccc(F)c2)cc1,69 to 70
12,CCCc1nc(SC)c(C(O)(C(=O)O)c2ccccc2)n1Cc1ccc(-c2ccccc2S(=O)(=O)NC(=O)NCc2ccccc2)cc1 (stereo not given),170
13,CCOC(=O)c1cc2cc(N(CC)C(C)=O)ccc2[nH]1,149 to 150
14,O=c1[nH]c(=O)n(C2C=CC(CBr)O2)cc1C=CBr (stereo not given),> 150
15,CN(C)CCC(=O)Nc1cccc([N+](=O)[O-])c1,80 to 81
16,CCCCC1(N(C)C)CCC(c2[nH]c3ccccc3c2C)(c2[nH]c3ccccc3c2CCN)CC1 (stereo not given),105 to 112
17,O=[N+]([O-])c1cccc(-c2ccc3c(n2)[nH]c2ccccc23)c1,185
18,O=CNNC(=O)N1Cc2ccccc2Oc2ccc(Cl)cc21,177 to 181
19,Nc1ccc(C(=O)O)cc1S(N)(=O)=O,214 to 219
20,CCOC(=O)c1cnc2n(c1=O)CCc1ccccc1-2,117 to 125
21,O=C1NCCc2c(-c3ccc(F)cc3F)[nH]c3cccc1c23,196 to 197
22,CC1(C)N=C(Oc2ccnc(O)c2)c2cc(C#N)ccc2O1,275 to 278
23,CC(=O)c1c(C)nc2c(OCc3c(Cl)ccc(S(=O)(=O)N4CCC[C@H]4C(=O)NCCCNC(=O)c4ccc(C=NN)cc4)c3Cl)cccn12,158 to 160
24,NCC(F)(F)C(F)(F)C(F)(F)C(F)(F)CN,44 to 45
25,C=CCONC(=O)c1nc(-c2ccc(Cl)c(OC)c2F)nc(N)c1C=C,98 to 101

row,SMILES,melting point [°C]
1,COc1cc2c(cc1CCC#N)C(=O)CC(C)(C)O2,105 to 107
2,Cc1c(C=CC(=O)O)cccc1[N+](=O)[O-],222
3,CC(=O)Oc1ccccc1C(=O)NC(S(=O)C(C)C)C(Cl)(Cl)Cl (stereo not given),90 to 92
4,O=[N+]([O-])c1ccc2c(c1)C(c1ccccc1)=NCc1cc(CO)nn1-2,192 to 194
5,O=C1Cc2cc(F)cc(C(=O)c3ccc(F)cc3)c2N1,195 to 196
6,Oc1ccc(Cc2ncc[nH]2)cc1,188 to 190
7,Fc1ccc(-c2nc(C(F)(F)F)nc(Cl)c2-c2ccccc2)cc1,67 to 68
8,CCOC(=O)CC(c1cccnc1)N1C(=O)c2ccccc2C1=O (stereo not given),72.3 to 72.8
9,Cc1[nH]c2ccccc2c1CCC(=O)N1CCN(c2ccccc2)CC1,120 to 121
10,CN(C)CCCC1CCCN(C(=O)N2c3ccccc3C(=O)Nc3cccnc32)C1 (stereo not given),115 to 117
11,Cc1ncnc(C)c1N,98 to 100
12,Cn1cncc1C(=O)NCc1cccc2c1C(=O)N(C1CCC(=O)NC1=O)C2=O (stereo not given),> 260
13,CC(C)(C)NC(=O)NC(C)(C)C#N,204 to 205
14,Cc1nc(N2C[C@@H](C)C[C@H](C)C2)c2nc(-c3ccccc3)cc-2[nH]1 (relative stereo),226 to 227
15,O=C1NCc2nc3ccc(Cl)cc3c(=O)n2-c2ccccc21,286 to 288
16,CCn1nc(-c2ccncc2)c(C(C)=O)c(Nc2ccc(C(=O)O)cc2)c1=O,252 to 253
17,C[C@H](Cc1ccc2c(c1)OC(C(=O)O)(C(=O)OCCc1ccccc1)O2)NC[C@H](O)c1cccc(Cl)c1 (stereo not given in full),75 to 82
18,O=c1ccc(C(F)(F)F)cn1Cc1ccccc1NCCO,114 to 115
19,OC1CCN(CC(O)c2cc(-c3ccccc3)on2)CC1 (stereo not given),117 to 119
20,COc1ccc(OC)c2c1C(=O)C=C(SCCCO)C2=O,125 to 126
21,COc1ccc(C2CCN(C(=O)Nc3ccc4cc(CN5C(C)(C)CCCC5(C)C)ccc4c3)CC2)cc1,164 to 166
22,C=C(Cn1cc[nH]c1=O)c1ccc(OC)c(OC2CCCC2)c1,110
23,CC(C)NNC(=O)NC1c2ccccc2Oc2ccccc21,162
24,Cc1nnc2n1-c1sc(CCc3ccc(Cl)cc3)cc1C(c1ccccc1Cl)=NC2,162 to 164
25,Cc1ccc2c(=O)[nH]c(C3CCN(C)CC3)cc2c1,236 to 238
